The target of one experiment is T1, Protein skinhead-1 (Caenorhabditis elegans, UniProt P34707).
T1 sequence (P34707 whole entry): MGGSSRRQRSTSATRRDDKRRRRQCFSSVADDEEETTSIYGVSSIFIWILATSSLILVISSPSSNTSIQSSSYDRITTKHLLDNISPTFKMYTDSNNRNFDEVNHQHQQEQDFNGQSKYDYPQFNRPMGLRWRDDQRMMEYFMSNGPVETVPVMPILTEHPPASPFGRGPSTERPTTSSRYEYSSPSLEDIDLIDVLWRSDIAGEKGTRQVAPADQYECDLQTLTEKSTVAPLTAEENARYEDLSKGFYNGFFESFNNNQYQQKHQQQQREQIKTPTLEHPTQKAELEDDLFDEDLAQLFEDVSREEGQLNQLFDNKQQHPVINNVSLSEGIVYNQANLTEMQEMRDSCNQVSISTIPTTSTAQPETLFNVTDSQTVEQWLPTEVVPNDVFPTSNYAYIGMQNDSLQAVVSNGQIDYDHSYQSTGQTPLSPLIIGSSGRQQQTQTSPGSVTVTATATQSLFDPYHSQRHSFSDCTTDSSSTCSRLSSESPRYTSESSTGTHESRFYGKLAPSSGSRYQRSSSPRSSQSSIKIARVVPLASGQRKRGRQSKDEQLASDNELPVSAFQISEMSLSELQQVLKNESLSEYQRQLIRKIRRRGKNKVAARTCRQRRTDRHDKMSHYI
Type of experiment: functional.

Experiment [1] in a line: NIH3T3 cell viability loss – ATP luminescence, mouse fibroblasts, counter-screen, dose response (AID 2010).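 Also: cells exposed to compound for about 90 hours before reading.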 Type of experiment: functional, cell-based. On the technique in general: A counterscreen serves to expose hits that act by an unwanted route or on another target.
Experiment [2] is described as follows: Trypanosoma cruzi growth suppression in host cells – NIH3T3 host cells, beta-gal luminescence, confirmation (AID 2044).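 Also: intracellular parasites grown in NIH/3T3 mouse fibroblasts as host cells; luminescent beta-galactosidase reporter signal from transgenic T. cruzi replicating inside host cells; inhibitors lower the luminescence signal.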 Type of experiment: functional, cell-based.
A short description of experiment [3]: cells.
The target of experiment [4] is T2, Ubiquitin-conjugating enzyme E2 N (Homo sapiens, UniProt P61088).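 Also: Dose-response confirmation in a TR-FRET assay detecting UBC13-driven polyubiquitin chain formation, inhibition measured.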
T2 sequence (P61088 whole entry): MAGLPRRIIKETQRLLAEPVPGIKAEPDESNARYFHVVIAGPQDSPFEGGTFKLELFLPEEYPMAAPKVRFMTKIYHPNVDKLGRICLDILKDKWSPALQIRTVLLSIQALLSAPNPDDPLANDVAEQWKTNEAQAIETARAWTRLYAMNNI
Type of experiment: functional.

Experiment [5] relates to Vero. Description: cells. It counts as functional, Chlorocebus sabaeus.
Experiment [6] has as its system Vero. Description: cells. It counts as functional, cell-based, Chlorocebus sabaeus.
Experiment [7] in a line: alpha-synuclein stem-loop luciferase translation blockers – H4 neuroglioma cells, luminescence, confirmation (AID 1988). It counts as functional, cell-based.
Experiment [8] in a line: Luminescence Cell-Based Dose Response HTS to Identify Inhibitors of 5'UTR Stem-Loop Driven Prion Protein mRNA Translation in H4 Neuroglioblastoma Cells. [Related pubchem assays: 1827 (Project Summary), 1813 (Primary HTS)]. It counts as functional.
Experiment [9] in a line: luciferase reporter signal suppression in cells – H4 neuroglioma cells, luminescence, dose response (AID 1990). It counts as functional, cell-based. On the technique in general: Reporter assays use an easily measured gene product as a stand-in for the process of interest.
Experiment [10] can be described thus: THP-1 cell cytotoxicity, dose response, cytotoxicity control for non-replicating M. tuberculosis project (AID 489025). It counts as functional.
Experiment [11] is described as follows: cells. Type of experiment: functional.
A short description of experiment [12]: Luminescence Cell-Based Dose Response HTS to Identify Activators of Luciferase Translation or Activity in H4 […] Cells. [Related pubchem assays: 1829 (Project Summary), 1814 (Primary HTS)]. Type of experiment: functional.
The test system of a further experiment is H4. Description: Luminescence Cell-Based Dose Response HTS to Identify Activators of 5'UTR Stem-Loop Driven Prion Protein mRNA Translation in H4 Neuroglioblastoma Cells. [Related pubchem assays: 1829 (Project Summary), 1814 (Primary HTS)]. Type of experiment: functional. The note with it: Homo sapiens.
Experiment [13] is described as follows: Luminescence Cell-Based Dose Confirmation HTS to Identify Activators of 5'UTR Stem-Loop Driven Alpha-Synuclein mRNA Translation in H4 Neuroglioblastoma Cells. [Related pubchem assays: 1829 (Project Summary), 1814 (Primary HTS)]. Type of experiment: functional.
Experiment [14] deals with T3, Short transient receptor potential channel 4 (Mus musculus, UniProt Q9QUQ5).
T3 sequence (Q9QUQ5 whole entry): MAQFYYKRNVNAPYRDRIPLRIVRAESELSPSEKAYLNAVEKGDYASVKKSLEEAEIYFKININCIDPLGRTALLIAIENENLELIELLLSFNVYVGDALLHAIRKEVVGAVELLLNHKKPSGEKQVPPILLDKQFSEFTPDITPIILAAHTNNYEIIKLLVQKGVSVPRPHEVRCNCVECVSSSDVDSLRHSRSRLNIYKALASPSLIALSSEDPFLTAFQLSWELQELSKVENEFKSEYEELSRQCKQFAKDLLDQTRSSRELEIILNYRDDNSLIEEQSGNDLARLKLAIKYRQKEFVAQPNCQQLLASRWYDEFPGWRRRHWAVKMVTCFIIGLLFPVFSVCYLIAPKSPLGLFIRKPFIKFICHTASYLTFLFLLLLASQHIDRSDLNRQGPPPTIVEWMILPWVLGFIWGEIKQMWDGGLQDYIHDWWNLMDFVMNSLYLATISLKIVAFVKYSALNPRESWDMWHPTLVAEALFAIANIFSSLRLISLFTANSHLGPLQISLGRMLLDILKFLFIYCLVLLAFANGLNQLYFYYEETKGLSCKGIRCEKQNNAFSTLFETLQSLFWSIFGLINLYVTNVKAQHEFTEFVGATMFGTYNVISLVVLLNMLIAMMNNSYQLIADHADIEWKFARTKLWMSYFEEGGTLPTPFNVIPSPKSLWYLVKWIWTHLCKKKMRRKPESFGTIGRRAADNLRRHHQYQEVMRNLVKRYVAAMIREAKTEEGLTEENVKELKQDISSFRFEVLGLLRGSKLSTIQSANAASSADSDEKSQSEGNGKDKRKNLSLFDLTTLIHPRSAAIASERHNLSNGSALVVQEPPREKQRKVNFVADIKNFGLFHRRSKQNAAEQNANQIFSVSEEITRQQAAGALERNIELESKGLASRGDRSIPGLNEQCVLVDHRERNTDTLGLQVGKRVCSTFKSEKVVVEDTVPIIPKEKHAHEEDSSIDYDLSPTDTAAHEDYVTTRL
The experiment is described as follows: block of DAMGO-driven TRPC4 calcium entry – cell-based, HEK293 TRPC4/mu-opioid, Fluo-4 calcium, dose response (AID 434942).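 Also: potency of inhibitors blocking the TRPC4 calcium response.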 Type of experiment: functional.

The next experiment deals with INS1. Description: INS-1E survival protection against cytokine death – cell-based, luminescence, retest, dose response (AID 449756).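 Also: cell death triggered by IL-1 beta plus TNF-alpha plus IFN-gamma mixture; protective hits raise ATP signal compared with cytokine alone wells.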 Type of experiment: functional. The note with it: Rattus norvegicus.
The next experiment has as its target Large T antigen (Simian virus 40, UniProt P03070). Type of experiment: functional, Betapolyomavirus macacae.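 Also: Confirmatory-stage PubChem screen for compounds that inhibit SV40 T antigen.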

Active and inactive are the calls of the source.

Sequence of Large T antigen (P03070 whole entry): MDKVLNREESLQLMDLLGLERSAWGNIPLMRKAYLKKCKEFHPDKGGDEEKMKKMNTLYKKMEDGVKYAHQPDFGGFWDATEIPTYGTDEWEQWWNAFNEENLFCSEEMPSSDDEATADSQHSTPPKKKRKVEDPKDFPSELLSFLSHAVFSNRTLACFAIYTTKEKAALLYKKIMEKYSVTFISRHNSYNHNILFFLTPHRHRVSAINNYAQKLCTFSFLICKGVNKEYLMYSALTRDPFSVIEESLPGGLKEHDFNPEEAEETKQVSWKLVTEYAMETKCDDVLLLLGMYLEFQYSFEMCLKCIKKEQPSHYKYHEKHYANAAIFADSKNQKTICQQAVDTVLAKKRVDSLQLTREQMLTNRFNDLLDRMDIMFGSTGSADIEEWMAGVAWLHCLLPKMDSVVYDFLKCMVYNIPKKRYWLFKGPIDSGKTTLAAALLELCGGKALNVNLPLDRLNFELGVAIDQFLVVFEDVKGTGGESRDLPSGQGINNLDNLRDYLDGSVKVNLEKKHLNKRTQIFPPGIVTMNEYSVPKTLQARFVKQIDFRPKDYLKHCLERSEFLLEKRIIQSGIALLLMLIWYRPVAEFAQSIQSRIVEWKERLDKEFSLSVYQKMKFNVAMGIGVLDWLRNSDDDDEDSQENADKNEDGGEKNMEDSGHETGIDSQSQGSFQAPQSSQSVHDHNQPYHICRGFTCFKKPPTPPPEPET

As usually defined, the IC50 is the point on the concentration scale where inhibition reaches its midpoint. Turning to `Cc1cc(NC(=O)CSc2nc3ccccc3c(=O)n2Cc2ccc(F)cc2)no1`, the IC50 at Protein skinhead-1 was 82.4 µM (inactive).

A word on the EC50: it is the concentration at which the effect is half-maximal. As to `Cc1ccc(C(=O)c2c(NC(=O)c3ccncc3)sc3c2CCCC3)cc1`, the results for the EC50 (in [1]; in experiment [2]; in the experiment “cells [3]”) were > 60 µM (not active), < 0.1 µM (active) and 0.266 µM (active), respectively.

With `Cc1cc(C)n(Cc2ccc(C(=O)NCc3ccco3)o2)n1`, the IC50 at Protein skinhead-1 was > 100 µM (inactive).

In the case of `COc1cccc(NC(=O)CSc2nc3ccccc3c(=O)n2CCCC(=O)NCCCN2CCOCC2)c1`, the IC50 in experiment [4] was > 20 µM (inactive).

One may read the CC50 as the concentration that lowers cell viability or growth by half. As for `Cc1ccc(O)c(C(=O)CC(=O)c2cccc(F)c2)c1`, the 50% cytotoxic concentration (CC50) with Vero [5] (Chlorocebus sabaeus, Vero) is > 25 µM (active). Besides, the half-maximal inhibitory concentration (IC50) in the experiment with Vero [6] (Chlorocebus sabaeus, Vero) was 21.1 µM (active).

Take `COc1cccc(C(c2sc3ncnn3c2O)N2CC(C)OC(C)C2)c1` (configuration not stated): the IC50 on Protein skinhead-1 was > 100 µM (inactive).

As to `COC(=O)c1c(NC(=O)c2ccc(OC(C)C)cc2)sc2c1CC(C)(C)NC2(C)C`, the figures for the half-maximal effective concentration (EC50) in [7], in [8] and in experiment [9] were 8.31 µM (active), 8.41 µM (active) and 8.35 µM (active), respectively. The cytotoxic concentration (CC50) in the experiment on Vero [5] (Chlorocebus sabaeus, Vero) is > 25 µM (active). Also, the IC50 in experiment [4] was > 20 µM (inactive); in the experiment on Vero [6] (Chlorocebus sabaeus, Vero), 23.3 µM (active).

With `Cc1ccc2c(CN3CCN(Cc4ccccc4)CC3)cc(=O)oc2c1C`, the figures for the half-maximal effective concentration (EC50) (in experiment [1]; in [2]; in “cells [3]”) were > 60 µM (not active), < 0.1 µM (active) and 0.065 µM (active), respectively.

As to `N#Cc1ccsc1NC(=O)C1CCN(C(=O)c2ccc(Cl)cc2)CC1`, the IC50 in experiment [4] was > 20 µM (inactive).

Turning to `CCCCN1CCC(O)(c2ccccc2)C(C(=O)c2ccccc2)C1` (configuration not stated), the CC50 in experiment [10] was > 40 µM (active). For the same compound, the IC50 in the experiment “cells [11]” is 29.6 µM (active).

For `CC(=O)c1cccc(NS(=O)(=O)c2ccc3c(c2)oc(=O)n3C)c1`, the IC50 at Protein skinhead-1 was > 100 µM (inactive).

Regarding `O=C(CSc1nc2ccccc2n1-c1ccccc1)Nc1ncc(Cl)cc1Cl`, the CC50 in the experiment with Vero [5] (Chlorocebus sabaeus, Vero) was 22.1 µM (active). Moreover, in the experiment on Vero [6] (Chlorocebus sabaeus, Vero), the IC50 was 4.63 µM (active).

For `C=CCNc1nnc(Sc2ncccc2[N+](=O)[O-])s1`, the CC50 in [10] is 33.4 µM (active). Moreover, the EC50 was 10.3 µM (inconclusive) in experiment [12], 17.8 µM (active) in the experiment on H4 and > 120 µM (not active) in experiment [13]. Besides, the IC50 in the experiment “cells [11]” was 3.81 µM (active).

On to `CCc1ccc2oc(=O)cc(CN3CCN(Cc4ccccc4)CC3)c2c1`, for which the figures for the concentration giving a half-maximal response (EC50) (in [1]; in experiment [2]; in “cells [3]”) were > 60 µM (not active), < 0.1 µM (active) and 0.127 µM (active), respectively.

In the case of `CCN(CC)CCN(C(=O)C1CCCCC1)c1nc2cc3c(cc2s1)OCO3`, the half-maximal effective concentration (EC50) was > 60 µM (not active) in experiment [1], < 0.1 µM (active) in experiment [2] and 0.514 µM (active) in the experiment “cells [3]”.

As to `CCOC(=O)C1(CCOc2ccccc2)CCN(Cc2cccs2)CC1`, in [14], the EC50 was 4.22 µM (active).

`COc1ccc(Br)cc1CN1CCN(C(=O)Cc2ccccc2)CC1`: the EC50 in [14] was 6.68 µM (active).

Take `COc1ccc(Cn2nnnc2C(c2cc3cc(C)ccc3nc2O)N2CCN(C)CC2)cc1` (configuration not stated): the EC50 in experiment [14] was 1.88 µM (active).

As to `N=c1c2c(n(Cc3ccccc3)c3c1CCC3)CCC2`, in [14], the EC50 was 3.35 µM (active).

Turning to `Clc1cccc(OCc2nc(-c3ccncc3)no2)c1`, the IC50 at Protein skinhead-1 was 26.6 µM (active).

For orientation: AC50 means the midpoint of the concentration-response curve, whichever way the signal moves. Turning to `CCCCCc1cc(=O)oc2c(C(CCN(CC)CC)c3ccc(OC)cc3)c(OC)cc(OC)c12` (configuration not stated), in the experiment with INS1, the half-maximal activity concentration (AC50) was 10.8 µM (active). Besides, the IC50 in experiment [4] is > 20 µM (inactive).

Take `CNCCNC[C@H](Cc1cccc2ccccc12)NCCc1ccccc1`: the IC50 with Vero [6] (Chlorocebus sabaeus, Vero) was 20.4 µM (active).

Take `CCOC(=O)Cc1cc(=O)n(-c2nc3ccccc3s2)[nH]1`: at Large T antigen, the half-inhibitory concentration (IC50) is > 100 µM (active).

Consider `COc1cc(/C=N/N(C)C)cc(Br)c1O`, for which the half-maximal inhibitory concentration (IC50) on Large T antigen is 5.17 µM (active).

As to `CCCc1ccc(OCc2ccc(C(=O)N/N=C/c3cccnc3)o2)cc1`, in experiment [10], the half-maximal cytotoxic concentration (CC50) was > 40 µM (active). In addition, the IC50 in “cells [11]” is 47.6 µM (active).

Regarding `C[C@]12CCCC[C@@H]1CC[C@@H]1[C@@H]2CC[C@@]2(C)[C@H]1CC[C@@]2(O)CNCCO`, the CC50 was 19.4 µM (active) with Vero [5] and 18.4 µM (active) in the experiment with Vero [5] (Chlorocebus sabaeus, Vero). Also, the IC50 was > 20 µM (inactive) in experiment [4]; > 12.5 µM (active) with Vero [6] (Chlorocebus sabaeus, Vero); 9.19 µM (active) in the experiment on Vero [6] (vero).
